{"source": "patent US9878054B2", "about": "“Polypeptide and lipophilic moiety conjugate compositions, formulations, and uses related thereto” (Tufts Medical Center, Inc., priority 2012, dated 2018)", "key": {"[1]": {"test_system": "human platelets (thrombin)", "assay": "Thrombin-induced aggregation of human platelets", "assay_type": "cell-based", "conditions": "3 μM compound", "method": "(§1) A, Depiction of the mechanism of action of the cell-penetrating PZ-128 pepducin compound targeting the third intracellular loop (red) of PAR1. B, The NMR structure of PZ-128 was determined by simulated annealing methods using 210 distance restraints and included restraints to the proximal 3 hydrocarbons of the lipid. […] D, PZ-128 inhibits PAR1-dependent platelet aggregation. Gel filtered human platelets were treated with various concentrations of PZ-128 and then challenged with the PAR1 agonist SFLLRN (2.5 μM), 20 μM ADP, 200 μM AYPGKF or 1 mg/ml Ristocetin. E, Human platelets were treated with 3 μM PZ-128, 3 μM RWJ-56110, or 5% dextrose vehicle before the addition of various concentrations of thrombin (n=3-5).\n(§2) PZ-128 also markedly right-shifted thrombin-induced aggregation by 5-fold. By comparison, the small molecule RWJ-56110 which antagonizes PAR1 at the extracellular ligand-binding site gave a 2-fold right shift in the thrombin activation curve of human platelets.\n(§3) Whole blood from healthy donors was collected into a 30 ml syringe containing sodium citrate (0.4% vol/vol final). Platelets were isolated from platelet rich plasma (PRP) using Sepharose 2B columns in modified PIPES buffer."}, "[2]": {"target": "T1, PAR1 (Homo sapiens, UniProt P25116)", "T1 construct": "Platelets were isolated from platelet rich plasma (PRP) using Sepharose 2B columns; endogenous in cells; host or cells: human platelets from healthy donors, gel-filtered", "T1 sequence (P25116 22-425)": "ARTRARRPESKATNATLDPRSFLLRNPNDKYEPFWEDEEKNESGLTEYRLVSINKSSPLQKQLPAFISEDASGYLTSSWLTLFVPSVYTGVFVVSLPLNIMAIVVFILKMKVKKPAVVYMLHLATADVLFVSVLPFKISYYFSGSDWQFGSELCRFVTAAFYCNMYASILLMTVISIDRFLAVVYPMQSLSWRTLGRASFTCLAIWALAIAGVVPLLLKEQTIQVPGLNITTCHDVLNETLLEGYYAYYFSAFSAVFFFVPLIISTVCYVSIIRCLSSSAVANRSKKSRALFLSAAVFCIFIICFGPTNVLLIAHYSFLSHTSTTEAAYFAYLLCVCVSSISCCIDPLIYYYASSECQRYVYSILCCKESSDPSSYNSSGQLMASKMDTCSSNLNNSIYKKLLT", "assay": "Human platelet aggregation, PAR1 agonist SFLLRN", "assay_type": "cell-based", "conditions": "gel filtered human platelets, SFLLRN 2.5 μM", "method": "as §1, §2, §3"}, "[3]": {"test_system": "guinea pig platelets (ADP)", "assay": "Guinea pig ex vivo platelet aggregation to ADP after iv infusion", "assay_type": "in vivo", "conditions": "3 or 6 mg/kg iv, 20 μM ADP", "quoted_text": "PZ-128 or 5% dextrose USP vehicle was infused for 10 min into the jugular vein of male and female guinea pigs (0.55-0.65 kg). A-C, At the 15 min time point, whole blood was collected by cardiac puncture in 100 μg/ml PPACK/4% Na-citrate (final) anti-coagulant and platelet rich plasma (PRP) prepared and aggregation measurements were performed. […] B-C, PRP obtained at the 15 min time point after infusion with vehicle, 3 mg/kg PZ-128 or 6 mg/kg PZ128 was challenged with 2.5 μM SFLLRN, 20 μM ADP or 20 μM thromboxane mimetic, U46119. Individual data points (n=3) are overlayed on bar graphs depicting mean±SD. […] Data in B-D were analyzed by the non-parametric Kruskal-Wallis test with the Dunn's multiple pairwise comparison post-test.\nPZ-128 micelles were delivered by internal jugular vein infusions over 10 min.\nGuinea pigs weighing 600-650 g were used for platelet aggregation experiments. PZ-128 micelles (3 or 6 mg/kg) were administered by a 10 min intravenous infusion, and blood was collected by cardiac puncture into sodium citrate (0.4% vol/vol final) 5 minutes after cessation of the infusion. PRP was prepared and PPACK added to a final concentration of 100 μg/ml. PRP was calcified with 2.5 mM CaCl2 and aggregation was performed as described above."}, "[4]": {"test_system": "baboon arterial thrombosis (platelet deposition)", "assay": "Baboon arterial-venous shunt Dacron graft thrombosis", "assay_type": "in vivo, baboon (Papio anubis)", "method": "10-14 kg baboons were administered 3 mg/kg or 6 mg/kg PZ-128 by a 45 min iv infusion versus 5% dextrose vehicle (n=2-6). A, Net platelet accumulation was measured during the first 60 minutes of thrombus growth on a femoral arterio-venous Dacron graft (4 mm ID) inserted between silicone rubber tubing segments comprising a high-flow shunt. Blood flow was maintained at 100 ml/min by distal clamping the shunt. Autologous platelets were radiolabeled with indium-111 (1 mCi), and reinjected into the animals before thrombosis experiments. B, Deposition of platelets (mean±SD) was quantified in the head plus tail regions of the thrombus by 111Indium-labeled platelet imaging with 5-minute data acquisition periods starting at 60 min after initiation of the infusion. Statistical significance was determined using a variance stabilizing LN (natural log) transformation and a repeated measures mixed effects model with an autoregressive covariance structure. Subjects (individual baboons) were included in the model as a random effect. P=0.606 for 3 mg/kg vs vehicle and P=0.0028 for 6 mg/kg vs vehicle.\nBaboon arterial thrombosis experiments were conducted to determine whether the PZ-128 micelles had the potential to inhibit arterial thrombosis in primates. An arterial-venous shunt equipped with a Dacron vascular graft with an internal lumen diameter of 4 mm at a high flow rate of 100 ml/min was used. Thrombogenesis was assessed by measuring platelet content of the head and tail regions of the developing thrombus (FIG. 4A) and quantified by ^111Indium-labeled platelet imaging over 60 min. PZ-128 micelles at a dose of 1 mg/kg had no effect on platelet-thrombus deposition in the baboon.\nNon-terminal thrombosis and platelet aggregation studies were performed on 12 healthy male baboons (Papio anubis) weighing 9-12 kg at the Oregon National Primate Research Center (ONPRC). […] Platelet counts and hematocrit were measured immediately. […]"}, "[5]": {"test_system": "PAR1", "assay": "Baboon ex vivo platelet aggregation, SFLLRN (PAR1)", "assay_type": "in vivo", "method": "A-C, Male baboons (10-12 kg) were administered 1, 3 or 6 mg/kg PZ-128, or 5% dextrose USP vehicle by iv infusion and blood collected into 100 μg/ml PPACK anticoagulant at 0, 1, 2, 6, or 24 h time points. Light transmission platelet aggregometry was performed with platelet rich plasma with the indicated agonists (SFLLRN for PAR1, AYPGKF for PAR4 and ADP for P2Y12 and P2Y1). Data are reported as mean±SD (n=3-7) relative to time 0 controls (0%) and were analyzed by repeated measures one-way ANOVA with Bonferroni post-test correction; *P<0.05, **P<0.01 relative to time 0. Global P values were >0.05 for 1 mg/kg, 0.004 for 3 mg/kg, <0.0001 for 6 mg/kg. D, Pharmacokinetics of 3 and 6 mg/kg 45-min iv infusions of PZ-128 in male baboons. Plasma PZ-128 levels were measured by LC/MS/MS at 9 sequential time points: baseline, 15 min, 30 min, 1 h, 2 h, 4 h, 8 h, 24 h and 48 h after the start of infusion. Open symbols indicated plasma concentrations that were under the measurement threshold (5 ng/ml).\nThe anti-platelet effects of PZ-128 micelles were next examined in baboons at various time points after receiving different doses of intravenous infusions. […] At the lowest dose tested, 1 mg/kg PZ-128 micelles ([…]), PAR1-dependent aggregation (5 μM SFLLRN) was inhibited by only 5-10% at the 1-2 h time points (FIG. 3A). […] As a further assessment of in vivo specificity, PZ-128 gave no inhibition at any dose of either the ADP or AYPGKF (PAR4) responses at any time point.\nNon-terminal thrombosis and platelet aggregation studies were performed on 12 healthy male baboons (Papio anubis) weighing 9-12 kg at the Oregon National Primate Research Center (ONPRC). […] Whole blood (10 ml) was collected into PPACK at a final concentration of 100 μg/ml just prior to infusion (baseline) and 15 min to 24 h after the PZ-128 micelle infusion was terminated. Platelet counts and hematocrit were measured immediately. PRP was prepared from whole blood and platelet aggregation performed as described above. Bleeding time (BT) measurements were performed on the shaved volar surface of the forearm using the standard template method."}}, "note": "Where a SMILES comes first, the peptide text is derived from it. The star is where a group is joined. Palmitoyl = CCCCCCCCCCCCCCCC(=O)*"}
{"smiles": "CCCCCCCCCCCCCCCC(=O)N[C@@H](CCCCN)C(=O)N[C@@H](CCCCN)C(=O)N[C@@H](CO)C(=O)N[C@@H](CCCNC(=N)N)C(=O)N[C@@H](C)C(=O)N[C@@H](CC(C)C)C(=O)N[C@@H](Cc1ccccc1)C(N)=O", "note": "[PZ-128, palmitate-KKSRALF-NH2] (Palmitoyl-KKSRALF-NH2)", "values": [{"measurement": "Right shift of thrombin-induced aggregation curve", "setting": "[1]", "result": 5, "unit": "fold"}, {"measurement": "Extent of inhibition of human platelet aggregation in response to SFLLRN", "setting": "[2]", "result": "completely inhibited"}, {"measurement": "IC50", "setting": "[2]; read-out: IC50, inhibition of human platelet aggregation in response to PAR1 agonist SFLLRN", "result": 500, "unit": "nM"}, {"measurement": "Effect on ex vivo aggregation to ADP", "setting": "[3]", "result": "no effect"}, {"measurement": "Effect on platelet-thrombus deposition", "setting": "[4]; 1 mg/kg", "result": "no effect"}, {"measurement": "Effect against platelet arterial thrombus formation vs vehicle", "setting": "[4]; 3 mg/kg iv infusion, P=0.606", "result": "not significant"}, {"measurement": "Effect against platelet arterial thrombus formation vs vehicle", "setting": "[4]; 6 mg/kg iv infusion, P=0.0028", "result": "significant protective effect"}, {"measurement": "Inhibition of PAR1-dependent ex vivo aggregation", "setting": "[5]; 1 mg/kg, 30 min infusion, 5 μM SFLLRN, 1-2 h", "result": "5-10%"}, {"measurement": "Reversibility: inhibition with higher concentration of SFLLRN agonist", "setting": "[5]; 3 mg/kg and 6 mg/kg, 10 μM SFLLRN", "result": "loss of inhibition"}, {"measurement": "Inhibition of PAR1-dependent ex vivo aggregation", "setting": "[5]; 3 mg/kg, 30 min infusion, 1 h and 2 h", "result": 85, "unit": "%"}, {"measurement": "Inhibition of PAR1-dependent ex vivo aggregation", "setting": "[5]; 3 mg/kg, 24 h", "result": "not appreciably inhibited"}, {"measurement": "Inhibition of PAR1-dependent ex vivo aggregation", "setting": "[5]; 6 mg/kg, 45 min infusion, 1-2 h", "result": 100, "unit": "%"}, {"measurement": "Inhibition of PAR1-dependent ex vivo aggregation", "setting": "[5]; 6 mg/kg, 45 min infusion, 6 h", "result": 90, "unit": "%"}, {"measurement": "PAR1-dependent ex vivo aggregation, recovery", "setting": "[5]; 6 mg/kg, 24 h", "result": "completely recovered"}]}
